Source: patent publication US11518755B2, “Stable solutions of multicyclic antidepressants” (Leyden Technologies B.V., priority 2017, dated 2022)

Assay: Solubility of clozapine in different solvent systems (excess clozapine, shaken 24 hours, HPLC)
Format: physicochemical
Experimental: For clozapine, solutions of 20 mg/mL or more are preferred for oral administration of the solution. For soft gel capsules an even higher concentration is preferable. Therefore, a solubility study for clozapine was performed. An excess of clozapine was weighed in a HPLC vial and 1.0 mL of various solvent systems was added. Following, the mixture was placed on a mechanical shaker for 24 hours at 200 RPM and analysed by HPLC for clozapine content.

clozapine content after 24 hours (solvent system: 0.1% acetic acid in water): 4.7 mg/mL | clozapine content after 24 hours (solvent system: 1% acetic acid in water): 38.1 mg/mL | clozapine content after 24 hours (solvent system: 1% citric acid in water): 27.6 mg/mL | clozapine content after 24 hours (solvent system: 5% Transcutol P in PEG400): 91.8 mg/mL | clozapine content after 24 hours (solvent system: 5% acetic acid in water): 51.5 mg/mL | clozapine content after 24 hours (solvent system: 5% citric acid in water): 34.2 mg/mL | clozapine content after 24 hours (solvent system: 10% Transcutol P in PEG400): 91.3 mg/mL | clozapine content after 24 hours (solvent system: 10% acetic acid in water): 59.8 mg/mL | clozapine content after 24 hours (solvent system: 10% citric acid in water): 50.7 mg/mL | clozapine content after 24 hours (solvent system: 20% Kolliphor RH40/PEG400 (10:90)): 72.8 mg/mL | clozapine content after 24 hours (solvent system: 20% Transcutol P in PEG400): 99.5 mg/mL | clozapine content after 24 hours (solvent system: 20% kolliphor RH40 in water): 7.4 mg/mL | clozapine content after 24 hours (solvent system: 40% corn oil in miglyol): 8.4 mg/mL | clozapine content after 24 hours (solvent system: 50% solutol in water): 17.8 mg/mL | clozapine content after 24 hours (solvent system: 50% solutol/PEG400 (10:90)): 81.6 mg/mL | clozapine content after 24 hours (solvent system: 100% Transcutol P): 151.3 mg/mL | clozapine content after 24 hours (solvent system: Caprylocaproyl macrogol-8 glycerides (Labrasol ®)): 34.0 mg/mL | clozapine content after 24 hours (solvent system: Citrate buffer pH 3.4): 57.2 mg/mL | clozapine content after 24 hours (solvent system: Citrate buffer pH 3.7): 44.0 mg/mL | clozapine content after 24 hours (solvent system: Citrate buffer pH 4.0): 34.3 mg/mL | clozapine content after 24 hours (solvent system: Citrate buffer pH 4.7): 19.9 mg/mL | clozapine content after 24 hours (solvent system: Corn oil): 5.1 mg/mL | clozapine content after 24 hours (solvent system: N,N′-dimethyl acetamide (DMA)): 106.8 mg/mL | clozapine content after 24 hours (solvent system: N-methyl-2-pyrrolydone (NMP)): 409.7 mg/mL | clozapine content after 24 hours (solvent system: PEG200): 81.8 mg/mL | clozapine content after 24 hours (solvent system: PEG400): 77.0 mg/mL | clozapine content after 24 hours (solvent system: PEG400/34 mmol Citrate buffer, 20:80 (V/V)): 52.7 mg/mL | clozapine content after 24 hours (solvent system: PEG400/34 mmol Citrate buffer, 40:60 (V/V)): 52.3 mg/mL | clozapine content after 24 hours (solvent system: PEG400/34 mmol Citrate buffer, 60:40 (V/V)): 47.6 mg/mL | clozapine content after 24 hours (solvent system: PEG400/34 mmol Citrate buffer, 80:20 (V/V)): 49.8 mg/mL | clozapine content after 24 hours (solvent system: PEG400/Citrate buffer pH 4.0, 50:50 (V/V)): 33.4 mg/mL | clozapine content after 24 hours (solvent system: PEG400/Citrate buffer pH 4.0, 60:40 (V/V)): 29.6 mg/mL | clozapine content after 24 hours (solvent system: PEG400/Citrate buffer pH 4.0, 70:30 (V/V)): 32.1 mg/mL | clozapine content after 24 hours (solvent system: PEG400/Citrate buffer pH 4.0, 80:20 (V/V)): 44.6 mg/mL | clozapine content after 24 hours (solvent system: PEG400/Citrate buffer pH 4.0, 90:10 (V/V)): 56.2 mg/mL | clozapine content after 24 hours (solvent system: PEG400/water (50:50)): 2.3 mg/mL | clozapine content after 24 hours (solvent system: PEG400/water (60:40)): 6.5 mg/mL | clozapine content after 24 hours (solvent system: PEG400/water (70:30)): 14.0 mg/mL | clozapine content after 24 hours (solvent system: PEG400/water (80:20)): 31.1 mg/mL | clozapine content after 24 hours (solvent system: PEG600/water (90:10)): 65.2 mg/mL | clozapine content after 24 hours (solvent system: ethanol): 33.9 mg/mL | clozapine content after 24 hours (solvent system: glycerol): 0.5 mg/mL | clozapine content after 24 hours (solvent system: miglyol): 10.3 mg/mL | clozapine content after 24 hours (solvent system: water): 0.3 mg/mL
SMILES: CN1CCN(C2=Nc3cc(Cl)ccc3Nc3ccccc32)CC1 [Clozapine, 8-Chloro-11-(4-methylpiperazin-1-yl)-5H-dibenzo[b,e][1,4]diazepine]
